Biological target: CBP recombinant proteins (Homo sapiens (Human), UniProt Q92793)
Assay: Competitive HTRF assay for affinity to CBP recombinant protein
Assay type: binding
Details: His-tagged CBP 5 nM, biotin-labeled ligand 50 nM, 1% DMSO
Description: The affinity of the compounds synthesized in the present patert to the CBP recombinant proteins was determined by competitive HTRF method. His-tagged cyclic adenosine monophosphate response element binding protein (CREB-binding protein, CBP) was expressed in Escherichia coli system and further purified. CBP biotinylated ligands were all self-made. The BL21 star (DE3) competert cells transfected with His-tagged CBP protein genes at N-terminal were cultured at 37° C. for 16 h until the OD value was between 0.6 and 0.8, induced by 0.5 mM of IPTG and cultured overnight. The supernatant of cell lysate was purified by a Ni-ion affinity column and a Superdex75 molecular sieve column sequentially. The purity of resulting CBP proteins was 95%. The fluorescent donor reagent MAb Anti 6HIS—Eu cryptate Gold (Cisbio #61HI2KLA), the receptor reagent Streptavidin-XL665 (#610SAXLA) and the detection buffer (#62SDBRDD) required for HTRF were obtained from CISBIO BIOASSAYS (Codolet, France). Tris(2-carboxyethyl)phosphine hydrochloride (TCEP), sodium chloride, adenosine triphosphate (ATP), Tween-20, dimethylsulfoxide (DMSO), bovine serum albumin (BSA) and HEPES buffer were obtained from SIGMA at the highest level commercially available.
The general procedure of the competitive HTRF assay for the affinity to CBP recombinant proteins is as follows: 0.05% Tween-20 and 1 mM of TCEP were added immediately before the assay, and the assay was performed in a buffer consisting of 0.1 mg/ml BSA, 50 mM of HEPES and 5 mM of NaCl of pH 7.5. 2.5 μL of compound solution in a determination buffer with 4% DMSO and 5 μL of CBP solution in a determination buffer were added to a white low-volume 384-well microtiter plate, incubated at room temperature for 20 min, and then incubated at room temperature for 40 min by adding 2.5 μL of biotin-labeled ligand solution to the determination buffer. The final concentrations of CBP, biotin-labeled ligand and DMSO were 5 nM, 50 nM and 1%, respectively. Then, 5 μL of MAb Anti 6HIS—Eu cryptate Gold and […] of Streptavidin-XL665 in detection buffers from the manufacturer were added to the mixture, and the mixture was incubated for another 60 min. The final concentration of Streptavidin-XL665 was 12.5 nM, and MAb Anti 6HIS—Eu cryptate Gold was diluted according to the final concentration provided by the supplier. The multimode reader Spark from TECAN (Mannedorf, Switzerland) was used to read the plate to detect the homogeneous time-resolved fluorescence intensity of two groups, in which the excitation wavelength was 320 nm and the emission wavelengths were 665 nm and 620 nm. The IC50 value of the inhibitor was obtained by fitting fluorescence intensity ratios at 665 nm/620 nm with respect to the inhibitor concentration in an S-shaped dose-response curve by using Prism 7 (La Jolla, 15 CA).

Chain of CBP recombinant proteins (Q92793 whole entry): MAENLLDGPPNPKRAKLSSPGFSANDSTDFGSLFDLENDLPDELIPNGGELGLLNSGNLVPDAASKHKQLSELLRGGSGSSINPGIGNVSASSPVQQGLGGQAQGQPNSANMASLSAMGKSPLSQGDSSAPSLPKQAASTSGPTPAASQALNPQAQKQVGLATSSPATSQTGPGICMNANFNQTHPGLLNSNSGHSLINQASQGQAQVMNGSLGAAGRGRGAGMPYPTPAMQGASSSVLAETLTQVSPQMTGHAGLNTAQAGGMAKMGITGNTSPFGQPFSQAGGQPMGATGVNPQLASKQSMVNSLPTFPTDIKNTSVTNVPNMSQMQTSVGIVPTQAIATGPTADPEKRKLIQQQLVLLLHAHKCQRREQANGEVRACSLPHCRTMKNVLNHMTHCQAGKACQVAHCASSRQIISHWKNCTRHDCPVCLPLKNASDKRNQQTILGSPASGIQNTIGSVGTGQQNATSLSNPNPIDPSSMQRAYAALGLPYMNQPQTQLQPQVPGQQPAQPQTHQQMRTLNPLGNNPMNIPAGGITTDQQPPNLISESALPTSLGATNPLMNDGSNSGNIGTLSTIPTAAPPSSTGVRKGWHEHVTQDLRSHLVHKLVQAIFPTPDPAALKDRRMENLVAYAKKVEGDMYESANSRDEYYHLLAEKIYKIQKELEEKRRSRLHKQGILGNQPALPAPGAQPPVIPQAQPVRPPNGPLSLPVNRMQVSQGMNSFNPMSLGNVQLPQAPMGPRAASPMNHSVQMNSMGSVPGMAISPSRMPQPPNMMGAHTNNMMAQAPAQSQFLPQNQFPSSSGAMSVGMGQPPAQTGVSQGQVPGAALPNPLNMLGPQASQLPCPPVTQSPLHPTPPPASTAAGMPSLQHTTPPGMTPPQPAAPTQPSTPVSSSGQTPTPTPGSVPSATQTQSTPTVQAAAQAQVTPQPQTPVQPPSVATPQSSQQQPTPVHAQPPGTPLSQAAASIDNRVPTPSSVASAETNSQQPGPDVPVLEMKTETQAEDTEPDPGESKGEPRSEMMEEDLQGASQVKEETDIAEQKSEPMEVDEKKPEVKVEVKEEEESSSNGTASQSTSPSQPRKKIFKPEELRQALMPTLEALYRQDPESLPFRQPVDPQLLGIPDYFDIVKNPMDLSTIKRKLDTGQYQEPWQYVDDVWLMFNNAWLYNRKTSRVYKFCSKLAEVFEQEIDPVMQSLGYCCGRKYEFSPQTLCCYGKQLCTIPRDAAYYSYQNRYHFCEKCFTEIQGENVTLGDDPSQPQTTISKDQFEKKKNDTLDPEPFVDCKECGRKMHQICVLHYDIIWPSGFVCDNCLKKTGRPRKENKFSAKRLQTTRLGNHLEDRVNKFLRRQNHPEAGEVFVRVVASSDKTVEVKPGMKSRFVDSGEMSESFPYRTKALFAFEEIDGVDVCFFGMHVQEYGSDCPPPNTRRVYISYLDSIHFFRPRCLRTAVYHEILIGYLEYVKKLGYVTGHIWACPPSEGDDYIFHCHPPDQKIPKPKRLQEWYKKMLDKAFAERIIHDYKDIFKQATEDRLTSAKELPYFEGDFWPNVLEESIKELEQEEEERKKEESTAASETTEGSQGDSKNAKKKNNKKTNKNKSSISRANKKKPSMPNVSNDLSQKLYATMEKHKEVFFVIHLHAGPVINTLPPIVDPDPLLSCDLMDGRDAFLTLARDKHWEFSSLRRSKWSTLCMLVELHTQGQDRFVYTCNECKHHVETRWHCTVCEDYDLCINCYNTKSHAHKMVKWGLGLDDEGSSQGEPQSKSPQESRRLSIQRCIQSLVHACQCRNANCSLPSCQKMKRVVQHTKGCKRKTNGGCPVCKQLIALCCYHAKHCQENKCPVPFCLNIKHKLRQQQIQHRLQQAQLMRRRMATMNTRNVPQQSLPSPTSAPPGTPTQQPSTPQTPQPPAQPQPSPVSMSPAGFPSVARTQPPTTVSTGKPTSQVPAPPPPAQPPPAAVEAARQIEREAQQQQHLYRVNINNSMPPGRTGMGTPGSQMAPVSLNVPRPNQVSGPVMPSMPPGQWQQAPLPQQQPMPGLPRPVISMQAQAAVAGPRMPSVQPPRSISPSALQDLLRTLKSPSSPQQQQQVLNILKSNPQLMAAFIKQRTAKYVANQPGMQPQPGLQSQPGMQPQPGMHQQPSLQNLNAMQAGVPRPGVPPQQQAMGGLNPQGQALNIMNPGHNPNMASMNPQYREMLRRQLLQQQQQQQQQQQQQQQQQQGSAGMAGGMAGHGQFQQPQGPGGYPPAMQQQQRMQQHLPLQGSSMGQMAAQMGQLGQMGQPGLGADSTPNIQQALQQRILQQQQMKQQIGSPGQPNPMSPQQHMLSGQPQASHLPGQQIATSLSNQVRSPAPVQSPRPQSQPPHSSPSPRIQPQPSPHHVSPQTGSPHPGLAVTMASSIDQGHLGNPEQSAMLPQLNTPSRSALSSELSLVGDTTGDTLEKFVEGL

| SMILES | IC50 |
| --- | --- |
| CNC(=O)c1cc2ccc(N3CCOC3=O)cc2c(N2CCCc3cc(-c4cnn(C)c4)c(C(F)F)cc32)n1 [Example 24, 1-[7-difluoromethyl-6-(1-methyl-1H-pyrazol-4-yl)-3,4-dihydro-2H-quinolin-1-yl]-7-(2-oxo-oxazolidin-3-yl)-isoquinoline-3-carboxylic acid methylamide] | 7.8 nM |
| CNC(=O)c1cc2cccnc2c(N2CCCc3cc(-c4cncnc4)c(C(F)F)cc32)n1 [Example 37, 8-(7-difluoro-methyl-6-pyrimidine-5-yl-3,4-dihydro-2H-quinolin-1-yl)-[1,7] naphthyridine-6-carboxylic acid methylamide] | 16 nM |
| CNC(=O)c1cc2cc(N3CCOCC3=O)ccc2c(N2CCCc3cc(-c4cnn(C)c4)c(C(F)F)cc32)n1 [Example 28, 1-[7-difluoromethyl-6-(1-methyl-1H-pyrazol-4-yl)-3,4-dihydro-2H-quinolin-1-yl]-6-(3-oxo-morpholin-4-yl)-isoquinoline-3-carboxylic acid methylamide] | 5.3 nM |
| CNC(=O)c1cc2ccccc2c(N2CCCc3cc(-c4cnn(C)c4)c(Cl)cc32)n1 [Example 57, 1-[7-chloro-6-(1-methyl-1H-pyrazol-4-yl)-3,4-dihydro-2H-quinolin-1-yl]-isoquinoline-3-carboxylic acid methylamide] | 36 nM |
| CNC(=O)c1cc2cc(OC)cnc2c(N2CCCc3cc(C4CCN(C(C)=O)CC4)c(C(F)F)cc32)n1 [Example 51, 8-[6-(1-acetylpiperidin-4-yl)-7-difluoro-methyl-3,4-dihydro-2H-quinolin-1-yl]-3-methoxy-[1,7] naphthyridine-6-carboxylic acid methylamide] | 22 nM |
| Cn1cc(-c2cc3c(cc2C(F)F)N(c2nc(C(N)=O)cc4ccccc24)CCC3)cn1 [Example 3, 1-[7-difluoro-methyl-6-(1-methyl-1H-pyrazol-4-yl)-3,4-dihydro-2H-quinolin-1-yl]-isoquinoline-3-carboxylic acid amide] | 245 nM |
| CNC(=O)Cn1cc(-c2cc3c(cc2C(F)F)N(c2nc(C(=O)NC)cc4ccccc24)CCC3)cn1 [Example 56, 1-[7-difluoromethyl-6-(1-methylcarbamoylmethyl-1H-pyrazol-4-yl)-3,4-dihydro-2H-quinolin-1-yl]-isoquinoline-3-carboxylic acid methylamide] | 24 nM |
| CCNC(=O)c1cc2ccccc2c(N2CCCc3cc(-c4cnn(C)c4)c(C(F)F)cc32)n1 [Example 5, 1-[7-difluoro-methyl-6-(1-methyl-1H-pyrazol-4-yl)-3,4-dihydro-2H-quinolin-1-yl]-isoquinoline-3-carboxylic acid ethylamide] | > 1000 nM |
| CC(O)CNC(=O)c1cc2ccccc2c(N2CCCc3cc(-c4cnn(C)c4)c(C(F)F)cc32)n1 (stereo not drawn) [Example 7, 1-[7-difluoro-methyl-6-(1-methyl-1H-pyrazol-4-yl)-3,4-dihydro-2H-quinolin-1-yl]-isoquinoline-3-carboxylic acid(2-hydroxy-propyl)-amide] | > 1000 nM |
| CNC(=O)c1cc2cccnc2c(N2CCCc3cc(-c4cnn(CS(C)(=O)=O)c4)c(C(F)F)cc32)n1 [Example 38, 8-[7-difluoro-methyl-6-(1-methanesulfonyl-methyl-1H-pyrazol-4-yl)-3,4-dihydro-2H-quinolin-1-yl]-[1,7] naphthyridine-6-carboxylic acid methylamide] | 14 nM |
| CNC(=O)c1cc2ccc(C3CCOCC3)cc2c(N2CCCc3cc(-c4cnn(C)c4)c(C(F)F)cc32)n1 [Example 17, 1-[7-difluoromethyl-6-(1-methyl-1H-pyrazol-4-yl)-3,4-dihydro-2H-quinolin-1-yl]-7-(tetrahydro-4-yl)-isoquinoline-3-carboxylic acid methylamide] | 12 nM |
| CNC(=O)c1cc2cccnc2c(-c2ccc3c(c2)c(-c2cnn(C)c2)nn3C)n1 [Example 66, 8-[1-methyl-3-(1-methy 1-1H-pyrazol-4-yl)-1H-indazol-5-yl]-[1,7]naphthyridine-6-carboxylic acid methylamide] | 49 nM |
| CNC(=O)c1cc2ccccc2c(N2CCOc3cc(-c4cnn(C)c4)ccc32)n1 [Example 60, 1-[7-(1-methyl-1H-pyrazol-4-yl)-2,3-dihydro-benzo[1,4]oxazin-4-yl]-isoquinoline-3-carboxylic acid methylamide] | 58 nM |
| CNC(=O)c1cc2cccnc2c(N2CCCc3cc(C4CCN(C(C)=O)CC4)c(C(F)F)cc32)n1 [Example 46, 8-[6-(1-acetylpiperidin-4-yl)-7-difluoromethyl-3,4-dihydro-2H-quinolin-1-yl]-[1,7]naphthyridine-6-carboxylic acid methylamide] | 5.4 nM |
| CNC(=O)c1cc2cc(N3CCN(C)CC3=O)ccc2c(N2CCCc3cc(-c4cnn(C)c4)c(C(F)F)cc32)n1 [Example 27, 1-[7-difluoromethyl-6-(1-methyl-1H-pyrazol-4-yl)-3,4-dihydro-2H-quinolin-1-yl]-6-(4-methyl-2-oxo-piperazin-1-yl)-isoquinoline-3-carboxylic acid methylamide] | 3.3 nM |
| CN(C)C(=O)c1cc2ccccc2c(N2CCCc3cc(-c4cnn(C)c4)c(C(F)F)cc32)n1 [Example 4, 1-[7-difluoro-methyl-6-(1-methyl-1H-pyrazol-4-yl)-3,4-dihydro-2H-quinolin-1-yl]-isoquinoline-3-carboxylic acid dimethylamide] | > 1000 nM |
| CNC(=O)c1cc2ccoc2c(N2CCCc3cc(-c4cnn(C)c4)c(C(F)F)cc32)n1 [Example 63, 7-[7-difluoromethyl-6-(1-methyl-1H-pyrazol-4-yl)-3,4-dihydro-2H-quinolin-1-yl]-furan[2,3-c]pyridine-5-carboxylic acid methylamide] | 136 nM |
| CNC(=O)c1cc2ccccc2c(N2CCCc3cc(C4=CCOCC4)c(C(F)F)cc32)n1 [Example 31, 1-[7-difluoro-methyl-6-(3,6-dihydro-2H-pyran-4-yl)-3,4-dihydro-2H-quino-lin-1-yl]-iso-quinoline-3-carboxylic acid methylamide] | 49 nM |
| CCn1cc(-c2cc3c(cc2C(F)F)N(c2nc(C(=O)NC)cc4ccccc24)CCC3)cn1 [Example 32, 1-[7-difluoro-methyl-6-(1-ethyl-1H-pyrazol-4-yl)-3,4-dihydro-2H-quinolin-1-yl]-isoquino-line-3-carboxylic acid methylamide] | 36 nM |
| Cn1cc(-c2cc3c(cc2C(F)F)N(c2nc(C(=O)NCCO)cc4ccccc24)CCC3)cn1 [Example 6, 1-[7-difluoro-methyl-6-(1-methyl-1H-pyrazol-4-yl)-3,4-dihydro-2H-quinolin-1-yl]-isoquinoline-3-carboxylic acid(2-hydroxy-ethyl)-amide] | > 1000 nM |
| CNC(=O)c1cc2cc(N3CCCS3(=O)=O)ccc2c(N2CCCc3cc(-c4cnn(C)c4)c(C(F)F)cc32)n1 [Example 26, 1-(7-(difluoromethyl)-6-(1-methyl-1H-pyrazol-4-yl)-3,4-dihydroquinolin-1(2H)-yl)-6-(1,1-dioxyisothiazolidin-2-yl)-N-methyliso-quinoline-3-carboxamide] | 11 nM |
| CNC(=O)c1cc2cc(C3CCOC3)ccc2c(N2CCCc3cc(-c4cnn(C)c4)c(C(F)F)cc32)n1 (stereo not drawn) [Example 23, 1-[7-difluoromethyl-6-(1-methyl-1H-pyrazol-4-yl)-3,4-dihydro-2H-quinolin-1-yl]-6-(tetrahydrofuran-3-yl)-isoquinoline-3-carboxylic acid methylamide] | 18 nM |
| CNC(=O)c1nc(N2CCCc3cc(-c4cnn(C)c4)c(C(F)F)cc32)c2ccccc2n1 [Example 12, 4-[7-difluoro-methyl-6-(1-methyl-1H-pyrazol-4-yl)-3,4-dihydro-2H-quinolin-1-yl]-quinazolin-2-carboxylic acid methylamide] | > 1000 nM |
| Cn1cc(-c2cc3c(cc2C(F)F)N(c2nc(C(=O)NC4CC4)cc4ccccc24)CCC3)cn1 [Example 9, 1-[7-difluoro-methyl-6-(1-methyl-1H-pyrazol-4-yl)-3,4-dihydro-2H-quinolin-1-yl]-isoquinoline-3-carboxylic acid cyclopro-pylamide] | > 1000 nM |
